Consider three molecules from patent US12016312B2, “Animal models, screening methods, and treatment methods for intraocular diseases or disorders” (ZHUHAI QIWEI BIO-TECHNOLOGY LTD., priority 2018, dated 2024).

For test [1], the system named is Bacillus megaterium. Briefly: Antibiotic sensitivity screening test in petri dishes (MIC method). It counts as cell-based. Particulars: 10^-1 to 10^-5 mg/mL. The procedure:
The bacterial culture medium (HuanKai Microbial, Guangzhou, China) containing peptone 5 g, beef extract 3 g, NaCl 5 g, agar 15 g, and MnSO4 5 mg in 1 L ddH2O (pH=7.2) was prepared in conical flask (Drtech, Guangzhou, China) and was sterilized in the autoclave (HIRAYAMA, HEV-50, Japan) at 121° C. for 30 min. Bacillus megaterium (total 1*10^7 per culture) was cultured in the incubator (HettCube 200, Germany) at 37° C. for 24 h.
To test whether antibiotics can control the growth of Bacillus megaterium in vitro and in vivo, we first carried out an antibiotic sensitivity screening test in petri dishes which were made in example 1. The sensitivity of Bacillus megaterium to several major antimicrobial agents including ampicillin, vancomycin, neomycin, metronidazole and tetracycline were examined using the minimum inhibitory concentration (MIC) method. Ampicillin, vancomycin, neomycin, metronidazole, and tetracycline (purchased from Sigma, USA) at various concentrations (10^−1, 10^−2, 10^−3, 10^−4, 10^−5 mg/mL) were added into cooled medium.
The bacterial culture medium (HuanKai Microbial, Guangzhou, China) containing peptone 5 g, beef extract 3 g, NaCl 5 g, agar 15 g, and MnSO4 5 mg in 1 L ddH2O (pH=7.2) was prepared in conical flask (Drtech, Guangzhou, China) and was sterilized in the autoclave (HIRAYAMA, HEV-50, Japan) at 121° C. for 30 min. […]

The subject of test [2] is Bacillus megaterium. Briefly: Bacillus megaterium subretinal inoculation model, drusenoid pathology in monkey retinal tissues. It counts as in vivo, Macaca fascicularis. Particulars: intravitreous, 0.5 mg, one injection on Day 2 post bacterial inoculation; macaque. The procedure:
The macaques were sedated by intramuscular injection of a mixture of tiletamine hydrochloride (2.5 mg/kg) and xolazepam hydrochloride (2.5 mg/kg). After instilling topical anesthesia (0.5% proparacaine hydrochloride), the eyes were immediately visualized in vivo using a light microscope. The pupils were then dilated with 0.5% tropicamide and 0.5% phenylephrine to obtain the fundus photographs. […] Under microscopic monitoring, 20 μl of PBS (with or without bacteria) was injected into the subretinal space between photo receptors and RPE (retinal pigment epithelium), using a NanoFil Syringe Nanofil-100 for Microinjection (World Precision Instruments, USA). All procedures were done using sterile instruments. The macaque was euthanized 47 days post inoculation and the eyeball was enucleated for histological analyses. The eyeballs were fixed in 4% paraformaldehyde for 48 h and then embedded in paraffin. Sections were cut on a microtome at 6 μm and stained with H&E.
We examined whether subretinal inoculation of AH and VH cultures, as well as the cultured single species of B. megaterium led to AMD like pathology in macaque. About 20 CFU of bacteria (in 20 μl PBS) from AH, VH, and B. megaterium cultures were injected subretinally and PBS was used as a control (illustrated in FIG. 6). […]

Entries after “also recorded” stand apart in the source; their conditions may differ.

With `Cc1ncc([N+](=O)[O-])n1CCO` [metronidazole], the “fold less effective in controlling the growth of Bacillus megaterium (relative to neomycin)” value with Bacillus megaterium [1] was determined as 10000 fold.
As to `CN[C@H](CC(C)C)C(=O)N[C@H]1C(=O)N[C@@H](CC(N)=O)C(=O)N[C@H]2C(=O)N[C@H]3C(=O)N[C@H](C(=O)N[C@H](C(=O)O)c4cc(O)cc(O)c4-c4cc3ccc4O)[C@H](O)c3ccc(c(Cl)c3)Oc3cc2cc(c3O[C@@H]2O[C@H](CO)[C@@H](O)[C@H](O)[C@H]2O[C@H]2C[C@](C)(N)[C@H](O)[C@H](C)O2)Oc2ccc(cc2Cl)[C@H]1O` [vancomycin], the “size of drusenoid lesion in retinal tissue” value in the test with Bacillus megaterium [2] is reported as “reduce drusenoid lesion; also recorded: reduction in the size of drusenoid lesion”.
As to neomycin, in the test on Bacillus megaterium [1] (1*10^7 bacteria per culture, 37° C., 24 h), the “sensitivity of Bacillus megaterium to antimicrobial agents (control of growth in vitro)” value is “most sensitive; also recorded: best in vitro activity”.
